This is an account of results in PMC10650850, “Discovery, Structure–Activity Relationship and In Vitro Anticancer Activity of Small-Molecule Inhibitors of the Protein–Protein Interactions between AF9/ENL and AF4 or DOT1L” (Cancers, 2023).

One may read the IC50 as the concentration needed to halve the response being measured. For orientation: EC50 means the midpoint of the concentration-response curve. What is called inhibition is the change of the read-out against control, counted positive when it falls.

Test [1] has as its target T1, AF9-AF4 (Homo sapiens, UniProt P42568).
T1 construct: human AF9 AHD domain (475–568); made in house; host or cells: E. coli BL21(DE3)
T1 sequence (P42568 475-568): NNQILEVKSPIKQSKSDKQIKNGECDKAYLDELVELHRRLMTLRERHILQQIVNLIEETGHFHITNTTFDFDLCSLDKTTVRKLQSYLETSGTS
Description: AlphaLisa assay, AF9-AF4 interaction. Format: binding. The conditions noted are these: AF9 AHD, AF4 peptide. The protocol: (§1) Transcription cofactor AF4, which is the most frequent (~35%) fusion protein in MLL1-r leukemia, is another binding partner of AF9/ENL [35, 36, 37]. The AF9/ENL-AF4 interactions are essential for the formation of SEC, which causes aberrant gene expression in MLL-r leukemia and other AMLs. Using our previously developed AlphaLisa assays, selected compounds were tested for their ability to inhibit the PPIs between AF9 or ENL and AF4.
(§2) The cDNA for the human AF9 AHD domain (475–568) and ENL AHD domain (489–559) was synthesized (by Genscript, Piscataway, NJ, USA) and inserted into the pMAL c5X expression plasmid. The DOT1L peptide (Biotin-AHX-[…]) and AF4 peptide (Biotin-AHX-[…]) for the Alpha assay were purchased from Genscript.
(§3) Alpha assays were developed in our previous publication, using a Perkin-Elmer AlphaLisa anti-MBP kit, which contains streptavidin donor beads and anti-MBP acceptor beads. Briefly, the assay was performed using a MBP-protein (5 nM), a biotinylated peptide (40 nM), and increasing concentrations of a compound in 25 µL buffer (PBS with 0.5% BSA, pH 7.5) in 384-well plates according to the manufacturer’s protocol and measured with a Tecan SPARK microplate reader. Data were imported into Prism (version 5.0), and IC50 values from 3 independent experiments with standard deviation were obtained by using a standard dose-response curve fitting.
(Bead proximity is the source of the signal in Alpha formats.)

Test [2] deals with T2, AF9-DOT1L interaction (Homo sapiens, UniProt P42568).
T2 construct: human AF9 AHD domain (475–568); made in house; host or cells: E. coli BL21(DE3)
T2 sequence (P42568 475-568): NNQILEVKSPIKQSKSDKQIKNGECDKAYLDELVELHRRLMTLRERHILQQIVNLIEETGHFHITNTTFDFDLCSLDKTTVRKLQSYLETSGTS
Description: Pull-down assay of AF9 AHD with DOT1L peptide-coated beads. The test is classed as binding. The note with it: for remaining activity at 10 µM / remaining activity at 50 µM: Western blot, read-out: AF9 AHD % Control; for remaining activity at 10 µM: compound 10 μM; for remaining activity at 50 µM: compound 50 μM; for Effect on AF9 AHD bound to DOT1L peptide-coated beads (in words): up to 50 µM. The source says:
A pull-down assay was used to confirm that the strong inhibitors could disrupt the AF9-DOT1L interaction. Streptavidin agarose beads coated with biotinylated DOT1L peptide were used to pull-down the protein AF9 AHD in the solution, followed by thorough washing, SDS-PAGE (sodium dodecyl sulfate-polyacrylamide gel electrophoresis) and Western blotting to visualize and quantitate the protein. […] This alternative, non-optical method confirmed that compounds 24 and 50 can inhibit the PPI between AF9 and DOT1L.
The pull-down assays were conducted following our previous method. Briefly, the biotinylated DOT1L peptide (0.25 mg/mL) was incubated with streptavidin agarose beads (20 μL) in PBS containing 0.1% Triton X-100 (400 µL) for 3h to yield, after washing, DOT1L-coated beads. MBP-tagged AF9 AHD (0.2 µM, 400 µL) was pre-incubated with a compound for 1 h before adding to the beads. After 6 h incubation at 4 °C, the beads were collected, thoroughly washed, and subjected to SDS-PAGE and analyzed by Western blot using an MBP antibody (#2396, Cell signaling, Danvers, MA, USA).
In general terms: Immunoblotting shows a protein as a band on a membrane.

In test [3] the test system is HL60. The experiment in a line: Antiproliferation assay (XTT), HL60.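 Further: EC50 values in Micromolar not Nanomolar.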 The conditions noted are these: Homo sapiens, HL-60, 168 h, 7 days incubation, read-out: Antitumor activity EC50, HL60. The test is classed as cell-based. The protocol: (§4) The antitumor activity of selected compounds was evaluated against the proliferation of a panel of MLL-r leukemia and other cancer cells. MV4;11 and Molm-13 leukemia cells contain MLL-AF4 and MLL-AF9 fusion oncogenes, respectively. NB4 and HL60 are AML cells without MLL translocation. Hela (cervical cancer) is a solid tumor cell line. […] The anti-proliferation activity of these compounds against other AML cells (i.e., NB4 and HL60) might be due to their inhibition of SEC-mediated gene expression (e.g., Myc), as observed in our previous studies.
(§5) Proliferation inhibition assays were performed using an XTT assay kit (Biotium, Fremont, CA, USA) following our previous methods. The antiproliferation EC50 values were determined using Prism 5 and the reported results were the mean values of at least three independent experiments. The incubation time for all compounds was 7 days.

In test [4] the target is T3, ENL-AF4 (Homo sapiens, UniProt Q03111).
T3 construct: ENL AHD domain (489–559); made in house; host or cells: E. coli BL21(DE3)
T3 sequence (Q03111 489-559): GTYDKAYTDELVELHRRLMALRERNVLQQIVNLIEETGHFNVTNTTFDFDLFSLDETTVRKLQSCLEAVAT
Description: AlphaLisa assay, ENL-AF4 interaction. The conditions noted are these: ENL AHD, AF4 peptide. The test is classed as binding. The protocol:
as §1, §2, §3

Test [5] deals with T2, AF9-DOT1L interaction. Description: AlphaLisa assay, AF9-DOT1L interaction. Format: binding. An outline of the steps: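 AlphaLisa proximity assay using MBP-tagged human AF9 AHD (475–568, 5 nM) on anti-MBP acceptor beads and biotinylated DOT1L peptide (40 nM) on streptavidin donor beads, in PBS with 0.5% BSA, pH 7.5. Compound titrated; IC50 from dose-response fits of 3 independent experiments.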

In test [6] the test system is HoxA9, Meis1 and Myc. The experiment in a line: RT-qPCR of MLL target genes in Molm-13 cells. Format: cell-based. The note with it: 1 and 5 µM, 4 days. The source says: The major function of the SEC is to promote transcription elongation for its bound genes. Because of the high affinity of the PPIs between AF9/ENL and AF4, onco-MLL (e.g., MLL-AF4 or MLL-AF9/-ENL) recruits SEC to MLL target genes, facilitates their expression, and eventually causes leukemia initiation. Next, we investigated whether selected inhibitors of these PPIs can inhibit the expression of HoxA9, Meis1 and Myc, which are MLL target genes and their high expression is characteristic of MLL-r leukemia. In addition, high expression of Myc is also observed in a broad range of AMLs and other cancers and is considered a driving factor for oncogenesis. To this end, RNAs from the control and compound-treated Molm-13 cells (harboring MLL-AF9) were extracted and subjected to quantitative PCR. […] RNA extraction and RT-qPCR were performed following our previous method. 10^5 cells/mL were incubated with a compound for 4 days and the RNA was extracted using an RNeasy mini kit (#74104, Qiagen, Germantown, MD, USA). 100–1000 ng of total RNA was reverse transcribed using iScript™ Reverse Transcription Supermix (Bio-Rad, Hercules, CA, USA), using the manufacturer’s protocol. Quantitative real-time PCR was carried out using Fast SYBR Green Master Mix (Applied Biosystems, Waltham, MA, USA) according to the manufacturer’s instructions. Measurements were performed in triplicate using GAPDH as the reference gene. Real-time PCR was performed using the Biosystems Step One Plus detection system. The following sequences of primers were used: […]

Test [7] has as its system Molm13. The experiment in a line: Antiproliferation assay (XTT), Molm-13.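 Further: EC50 values in Micromolar not Nanomolar.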 The test is classed as cell-based. The note with it: Homo sapiens, MOLM-13, 168 h, 7 days incubation, read-out: Antitumor activity EC50, Molm13. Here is the method:
as §4, §5
On the technique in general: Tetrazolium assays rely on reduction of a dye to a coloured formazan, in cell work by metabolically active cells.

Test [8] deals with NB4. Description: Antiproliferation assay (XTT), NB4.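 Further: EC50 values in Micromolar not Nanomolar.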 Format: cell-based. The conditions noted are these: Homo sapiens, NB-4, 168 h, 7 days incubation, read-out: Antitumor activity EC50, NB4. Here is the method: as §4, §5
The subject of test [9] is MV4;11. The experiment in a line: Antiproliferation assay (XTT), MV4;11.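 Further: EC50 values in Micromolar not Nanomolar.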 Format: cell-based. The conditions noted are these: Homo sapiens, MV4-11, 168 h, 7 days incubation, read-out: Antitumor activity EC50, MV4;11. Here is the method: as §4, §5
Test [10] relates to Hela. The experiment in a line: Antiproliferation assay (XTT), Hela. Format: cell-based. The note with it: Homo sapiens, HeLa, 168 h, 7 days incubation, read-out: Antitumor activity EC50, Hela. Here is the method:
as §4, §5

For test [11], the system named is panel of MLL-r leukemia and other cancer cells. Description: Antiproliferation assay (XTT), panel of MLL-r leukemia and other cancer cells. The test is classed as cell-based. The conditions noted are these: MV4;11, Molm-13, NB4, HL60 and Hela cells, 7 days. Here is the method:
as §4, §5

The structures appear in SMILES notation. “Also recorded” adds a separate entry of the source.

On to `Cl.O=C(NCC1CCNCC1)c1cc2ccc(-c3ccc(N4CCCCC4)cc3)cc2s1` [Compound 24, 6-(4-(Piperidin-1-yl)phenyl)-N-(piperidin-4-ylmethyl)-benzo[b]thiophene-2-carboxamide hydrochloride], for which the IC50 in test [1] is 2.1 ± 0.3 µM; in [4], 2.6 ± 0.3 µM; in test [5] (MBP-protein 5 nM, biotinylated peptide 40 nM, 3 independent experiments with standard deviation, read-out: IC50 (μM) against the AF9-DOT1L interaction), 1.6 ± 0.2 µM. For the same molecule, the remaining activity at 10 µM in [2] turned out to be 62%. Besides, in test [2], the remaining activity at 50 µM was 4%. Further, the “Effect on AF9 AHD bound to DOT1L peptide-coated beads (in words)” value in [2] was “significantly reduced the amounts of AF9 AHD; also recorded: dose-dependently reduce AF9 AHD”. For the same molecule, the EC50 was 10 ± 1.8 µM in test [3]; 4.7 ± 0.3 µM in [7]; 5.3 ± 1.1 µM in test [8]; 9.6 ± 1.2 µM in test [9]; 50 µM in test [10]. For the same molecule, in test [6], the “Expression of MLL target genes HoxA9, Meis1 and Myc (in words)” value is “inhibited expression; also recorded: able to reduce the expression”.
Consider `Cl.NC(=O)c1ccc(-c2ccc3cc(C(=O)NCC4CCNCC4)sc3c2)cc1` [Compound 37, 6-(4-(Carbamoyl)phenyl)-N-(piperidin-4-ylmethyl)-benzo[b]thiophene-2-carboxamide hydrochloride], for which the IC50 in test [1] and in [4] was more than 50 µM throughout. In addition, in test [1], the “IC50 AF9-AF4” value was “did not inhibit”. The remaining activity at 10 µM in [2] came out at 54%. The remaining activity at 50 µM in test [2] was determined as 44%. In test [2], the “Effect on AF9 AHD bound to DOT1L peptide-coated beads (in words)” value is “did not significantly affect the AF9 AHD levels; also recorded: did not significantly affect the binding”. The “Inhibition of tumor cell proliferation (in words)” value in [11] is on record as “None of these three compounds inhibited tumor cell proliferation”. Besides, the EC50 in [3], in test [7], in [8], in test [9] and in test [10] was more than 50 µM in each case. Besides, in test [4], the “IC50 ENL-AF4” value was “did not inhibit”. Also, the “IC50 (μM) against the AF9-DOT1L interaction” value in [5] (MBP-protein 5 nM, biotinylated peptide 40 nM, 3 independent experiments with standard deviation) is “inactive”. In test [5] (compound at 5 μM, read-out: % Inhibition at 5 μM against the AF9-DOT1L interaction), the inhibition at 5 µM was 0%. In addition, in [6], the “Expression of MLL target genes HoxA9, Meis1 and Myc (in words)” value is “not and did not significantly affect the expression”.
